Consider 26 molecules from patent publication US11129827B2 (priority 2017, dated 2021).

One test addresses FAAH (Homo sapiens (Human), UniProt O00519). The experiment in a line: biochemical. The note with it: for inhibition at 1 µM: read-out: FAAH (human) % inh. 1 μM.
For another test, the target named is MAGL (Homo sapiens (Human), UniProt Q99685). The test can be described thus: biochemical. The settings on record: for inhibition at 1 µM: read-out: MAGL (human) % inh. 1 μM.

Read-outs that look alike come from different tables or passages of the source.

As a reminder, the IC50 is the concentration at which inhibition is half-maximal. For the molecule `O=C(Oc1cncc(C(F)(F)F)c1)N1CCC2(CC1)CC(Oc1cccc(C(F)(F)F)c1)C2` [Example 1, 5-(Trifluoromethyl)pyridin-3-yl 2-(3-(trifluoromethyl)phenoxy)-7-azaspiro[3.5]nonane-7-carboxylate], the inhibition at 1 µM at FAAH and on MAGL was greater than 75% in each case. For the same molecule, the IC50 on FAAH (read-out: FAAH (human) IC50) and at MAGL (read-out: MAGL (human) IC50) was less than 0.1 µM throughout.
With `O=C(Oc1cncc(C(F)(F)F)c1)N1CCC2(CC1)CN(Cc1ccc(Oc3cccc(Cl)c3)cc1)C2` [Example 2, 5-(Trifluoromethyl)pyridin-3-yl 2-(4-(3-chlorophenoxy)benzyl)-2,7-diazaspiro[3.5]nonane-7-carboxylate], the IC50 against FAAH lay in the range of 1 to 10 µM; on MAGL (read-out: MAGL (human) IC50) it was 0.1 to 1 µM.
Take `NC(=O)c1cncc(OC(=O)N2CCC3(CCN(Cc4cc(Cl)cc(C(F)(F)F)c4)C3)CC2)c1` [Example 3, 5-Carbamoylpyridin-3-yl 2-(3-chloro-5-(trifluoromethyl)benzyl)-2,8-diazaspiro[4.5]decane-8-carboxylate]: the inhibition at 1 µM on FAAH and at MAGL was greater than 75% in each case. The IC50 at FAAH (read-out: FAAH (human) IC50) and on MAGL (read-out: MAGL (human) IC50) was less than 0.1 µM throughout.
Take `NC(=O)c1cncc(OC(=O)N2CCC3(CC2)CN(Cc2cccc(Oc4ccc(Cl)cc4)c2)C3)c1` [Example 5, 5-Carbamoylpyridin-3-yl 2-(3-(4-chlorophenoxy)benzyl)-2,7-diazaspiro[3.5]nonane-7-carboxylate]: the inhibition at 1 µM on FAAH and on MAGL was greater than 75% throughout. The IC50 on FAAH (read-out: FAAH (human) IC50) and on MAGL (read-out: MAGL (human) IC50) was less than 0.1 µM each time.
Regarding `O=C(Oc1cncc(C(F)(F)F)c1)N1CCC2(CC1)CN(Cc1ccc(Oc3ccccc3Cl)cc1)C2` [Example 8, 5-(Trifluoromethyl)pyridin-3-yl 2-(4-(2-chlorophenoxy)benzyl)-2,7-diazaspiro[3.5]nonane-7-carboxylate], the results for the IC50 at FAAH (read-out: FAAH (human) IC50) and against MAGL were 0.1 to 1 µM and less than 0.1 µM, respectively.
Turning to `O=C(Oc1cncc(C(F)(F)F)c1)N1CCC2(CC1)CN(Cc1cccc(Oc3ccccc3Cl)c1)C2` [Example 9, 5-(Trifluoromethyl)pyridin-3-yl 2-(3-(2-chlorophenoxy)benzyl)-2,7-diazaspiro[3.5]nonane-7-carboxylate], the IC50 on FAAH (read-out: FAAH (human) IC50) and on MAGL (read-out: MAGL (human) IC50) was 0.1 to 1 µM in each case.
For `O=C(Oc1cncc(C(F)(F)F)c1)N1CCC2(CC1)CN(Cc1cccc(Oc3cccc(Cl)c3)c1)C2` [Example 10, 5-(Trifluoromethyl)pyridin-3-yl 2-(3-(3-chlorophenoxy)benzyl)-2,7-diazaspiro[3.5]nonane-7-carboxylate], the IC50 at FAAH (read-out: FAAH (human) IC50) and at MAGL (read-out: MAGL (human) IC50) was less than 0.1 µM in each case.
Take `O=C(Oc1cncc(C(F)(F)F)c1)N1CCC2(CC1)CN(Cc1cccc(Oc3cncnc3)c1)C2` [Example 11, 5-(Trifluoromethyl)pyridin-3-yl 2-(3-(pyrimidin-5-yloxy)benzyl)-2,7-diazaspiro[3.5]nonane-7-carboxylate]: the IC50 on FAAH (read-out: FAAH (human) IC50) and on MAGL (read-out: MAGL (human) IC50) was 0.1 to 1 µM throughout.
For the molecule `O=C(Oc1cncc(C(F)(F)F)c1)N1CCC2(CC1)CN(Cc1cccc(Oc3cccc(C(F)(F)F)n3)c1)C2` [Example 12, 5-(Trifluoromethyl)pyridin-3-yl 2-(3-((6-(trifluoromethyl)pyridin-2-yl)oxy)benzyl)-2,7-diazaspiro[3.5]nonane-7-carboxylate], the inhibition at 1 µM is 50 to 75% on FAAH and greater than 75% at MAGL.
On to `O=C(Oc1cncc(C(F)(F)F)c1)N1CCC2(CC1)CN(Cc1cccc(Oc3ccccc3Cl)c1Cl)C2` [Example 13, 5-(Trifluoromethyl)pyridin-3-yl 2-(2-chloro-3-(2-chlorophenoxy)benzyl)-2,7-diazaspiro[3.5]nonane-7-carboxylate], for which the inhibition at 1 µM was 50 to 75% at FAAH and greater than 75% on MAGL.
With `O=C(Oc1cncc(C(F)(F)F)c1)N1CCC2(CC1)CN(Cc1ccc(Cl)c(Oc3ccccc3)c1Cl)C2` [Example 14, 5-(Trifluoromethyl)pyridin-3-yl 2-(2,4-dichloro-3-phenoxybenzyl)-2,7-diazaspiro[3.5]nonane-7-carboxylate], the inhibition at 1 µM at FAAH is 50 to 75%; at MAGL it was greater than 75%.
Consider `CC1CCCN1c1ccc(CN2CCN(C(=O)Oc3cncc(C(N)=O)c3)CC2)c(OC(F)(F)F)c1` (centres unmarked) [Example 17, 5-Carbamoylpyridin-3-yl 4-(4-(2-methylpyrrolidin-1-yl)-2-(trifluoromethoxy)benzyl)piperazine-1-carboxylate], for which the inhibition at 1 µM on FAAH and on MAGL was greater than 75% each time. The IC50 on FAAH (read-out: FAAH (human) IC50) is 0.1 to 1 µM; against MAGL, less than 0.1 µM.
In the case of `Cc1ncc(C#N)cc1OC(=O)N1CCN(Cc2cccc(C(F)(F)F)c2C)C[C@H]1C` [Example 21, 5-Cyano-2-methylpyridin-3-yl (R)-2-methyl-4-(2-methyl-3-(trifluoromethyl)benzyl)piperazine-1-carboxylate], the inhibition at 1 µM on FAAH was greater than 75%; on MAGL it was 25 to 50%. For the same molecule, the IC50 at FAAH (read-out: FAAH (human) IC50) fell in the range of 0.1 to 1 µM; at MAGL, 1 to 10 µM.
As for `CC(C)Oc1cccc(CN2CC3(CCN(C(=O)Oc4cncc(C(F)(F)F)c4)CC3)C2)c1` [Example 22, 5-(Trifluoromethyl)pyridin-3-yl 2-(3-isopropoxybenzyl)-2,7-diazaspiro[3.5]nonane-7-carboxylate], the inhibition at 1 µM on FAAH lay within 50 to 75%; at MAGL, 25 to 50%.
Regarding `O=C(Oc1cncc(C(F)(F)F)c1)N1CCC2(CC1)CN(Cc1cc(Cl)cc(Oc3nc4ccccc4s3)c1)C2` [Example 23, 5-(Trifluoromethyl)pyridin-3-yl 2-(3-(benzo[d]thiazol-2-yloxy)-5-chlorobenzyl)-2,7-diazaspiro[3.5]nonane-7-carboxylate], the inhibition at 1 µM at FAAH and at MAGL was greater than 75% in each case. The half-inhibitory concentration (IC50) on FAAH (read-out: FAAH (human) IC50) and on MAGL (read-out: MAGL (human) IC50) was less than 0.1 µM in each case.
For `CC(C)Oc1cc(Cl)cc(CN2CC3(CCN(C(=O)Oc4cncc(C(F)(F)F)c4)CC3)C2)c1` [Example 24, 5-(Trifluoromethyl)pyridin-3-yl 2-(3-chloro-5-isopropoxybenzyl)-2,7-diazaspiro[3.5]nonane-7-carboxylate], the inhibition at 1 µM on FAAH and at MAGL was greater than 75% in each case.
Turning to `O=C(Oc1cncc(C(F)(F)F)c1)N1CCC2(CC1)CC(Oc1cc(Cl)cc(Cl)c1)C2` [Example 25, 5-(Trifluoromethyl)pyridin-3-yl 2-(3,5-dichlorophenoxy)-7-azaspiro[3.5]nonane-7-carboxylate], the inhibition at 1 µM at FAAH and at MAGL was greater than 75% in each case. The IC50 was 0.1 to 1 µM on FAAH (read-out: FAAH (human) IC50) and less than 0.1 µM against MAGL.
Consider `O=C(Oc1cncc(C(F)(F)F)c1)N1CCC2(CC1)CC(Oc1cccc(C(=O)N3CCCC3)c1)C2` [Example 26, 5-(Trifluoromethyl)pyridin-3-yl 2-(3-(pyrrolidine-1-carbonyl)phenoxy)-7-azaspiro[3.5]nonane-7-carboxylate], for which the inhibition at 1 µM at FAAH and on MAGL was greater than 75% each time. The values for the IC50 on FAAH (read-out: FAAH (human) IC50) and on MAGL were 0.1 to 1 µM and less than 0.1 µM, respectively.
Regarding `O=C(Oc1cncc(C(F)(F)F)c1)N1CCC2(CC1)CC(Oc1cc(Cl)ccc1Cl)C2` [Example 27, 5-(Trifluoromethyl)pyridin-3-yl 2-(2,5-dichlorophenoxy)-7-azaspiro[3.5]nonane-7-carboxylate], the inhibition at 1 µM on FAAH and on MAGL was greater than 75% each time.
With `O=C(Oc1cncc(C(F)(F)F)c1)N1CCC2(CC1)CC(Oc1ccc(-c3ccccc3)cc1)C2` [Example 28, 5-(Trifluoromethyl)pyridin-3-yl 2-([1,1′-biphenyl]-4-yloxy)-7-azaspiro[3.5]nonane-7-carboxylate], the inhibition at 1 µM at FAAH and on MAGL was greater than 75% throughout. Besides, the IC50 on FAAH (read-out: FAAH (human) IC50) and on MAGL (read-out: MAGL (human) IC50) was less than 0.1 µM in each case.
For the molecule `O=C(Oc1cncc(C(F)(F)F)c1)N1CCC2(CC1)CC(Oc1cccc(COc3ccc(Cl)cc3)c1)C2` [Example 29, 5-(Trifluoromethyl)pyridin-3-yl 2-(3-((4-chlorophenoxy)methyl)phenoxy)-7-azaspiro[3.5]nonane-7-carboxylate], the IC50 was less than 0.1 µM on FAAH and 0.1 to 1 µM at MAGL (read-out: MAGL (human) IC50). Also, the inhibition at 1 µM on FAAH and at MAGL was greater than 75% each time.
With `O=C(Oc1cncc(C(F)(F)F)c1)N1CCC2(CC1)CN(Cc1ccc(Oc3ccc(Cl)cc3)cc1)C2` [Example 30, 5-(Trifluoromethyl)pyridin-3-yl 2-(4-(4-chlorophenoxy)benzyl)-2,7-diazaspiro[3.5]nonane-7-carboxylate], the values for the IC50 on FAAH and at MAGL (read-out: MAGL (human) IC50) were 1 to 10 µM and 0.1 to 1 µM, respectively.
For `O=C(Oc1cncc(C(F)(F)F)c1)N1CCC2(CC1)CN(Cc1cccc(Oc3ccc(Cl)cc3)c1)C2` [Example 31, 5-(Trifluoromethyl)pyridin-3-yl 2-(3-(4-chlorophenoxy)benzyl)-2,7-diazaspiro[3.5]nonane-7-carboxylate], the IC50 against FAAH was less than 0.1 µM; on MAGL (read-out: MAGL (human) IC50), 0.1 to 1 µM.
`O=C(Oc1cncc(C(F)(F)F)c1)N1CCC2(CC1)CN(Cc1cccc(Oc3ccnnc3)c1)C2` [Example 33, 5-(Trifluoromethyl)pyridin-3-yl 2-(3-(pyridazin-4-yloxy)benzyl)-2,7-diazaspiro[3.5]nonane-7-carboxylate]: the inhibition at 1 µM on FAAH lay within 25 to 50%; on MAGL, 50 to 75%.
Consider `O=C(Oc1cncc(C(F)(F)F)c1)N1CCC2(CC1)CN(Cc1ccc(Oc3cncnc3)cc1)C2` [Example 34, 5-(Trifluoromethyl)pyridin-3-yl 2-(4-(pyrimidin-5-yloxy)benzyl)-2,7-diazaspiro[3.5]nonane-7-carboxylate], for which the IC50 against FAAH fell in the range of 1 to 10 µM; on MAGL (read-out: MAGL (human) IC50), 0.1 to 1 µM.
Regarding `CC(C)Oc1cc(CN2CCN(C(=O)Oc3cncc(C(N)=O)c3)[C@@H](C)C2)ccc1Cl` [Example 57, (S)-5-Carbamoylpyridin-3-yl 4-(4-chloro-3-isopropoxybenzyl)-2-methylpiperazine-1-carboxylate], the inhibition at 1 µM at MAGL was greater than 75%.
